According to PMC10180078, “In Silico and In Vitro Assessment of Carbonyl Reductase 1 Inhibition Using ASP9521—A Potent Aldo-Keto Reductase 1C3 Inhibitor with the Potential to Support Anticancer Therapy Using Anthracycline Antibiotics” (Molecules, 2023):
pIC50: −log10 of the molar value.

Biological target: T1, carbonyl reductase 1 (CBR1) (Homo sapiens, UniProt P16152)
T1 construct: human recombinant CBR1 expressed in Escherichia coli Rosetta (DE3)
T1 sequence (P16152 2-277): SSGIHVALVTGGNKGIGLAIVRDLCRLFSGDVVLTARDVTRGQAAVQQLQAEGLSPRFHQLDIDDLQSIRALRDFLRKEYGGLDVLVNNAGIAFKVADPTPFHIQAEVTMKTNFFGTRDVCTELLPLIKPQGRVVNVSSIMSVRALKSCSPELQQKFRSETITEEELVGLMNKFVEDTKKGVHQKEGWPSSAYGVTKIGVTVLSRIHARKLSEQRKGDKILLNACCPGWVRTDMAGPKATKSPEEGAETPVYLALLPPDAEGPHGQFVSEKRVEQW
Assay: recombinant CBR1 inhibition, menadione substrate, NADPH oxidation monitored at […] nm
Format: biochemical

pIC50: 4.36
SMILES: COc1ccc2[nH]c(C(=O)N3CCC(CC(C)(C)O)CC3)cc2c1 [ASP9521]
